What was measured:
Format in all cases: in vivo
[1] = test system: oat, wild (wild oat, Avena fatua); assay: Test A preemergence soil spray, visual injury rating 0-100; settings: 10 days
Summary of the method: (§1)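 Greenhouse test: loam/sand pots received a surfactant-containing formulation, as a preemergence directed soil spray or a postemergence spray on young plants. Injury was judged visually at day 10 relative to untreated controls.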

kochia (Bassia scoparia) [2] = assay: as above; settings: 10 days
Summary of the method: as §1

soybean (Glycine max) [3] = assay: as above; settings: 10 days
Summary of the method: as §1

corn (Zea mays) [4] = assay: as above; settings: 10 days
Summary of the method: as §1

[5] = test system: green foxtail (Setaria viridis); assay: as above; settings: 10 days
Summary of the method: as §1

[6] = test system: palmer (palmer amaranth, palmer pigweed, Amaranthus palmeri); assay: as above; settings: 10 days
Summary of the method: as §1

[7] = test system: ryegrass, Italian (italian ryegrass, Lolium multiflorum); assay: as above; settings: 10 days
Summary of the method: as §1

[8] = test system: wheat (Triticum aestivum); assay: as above; settings: 10 days
Summary of the method: as §1

[9] = test system: blackgrass (Alopecurus myosuroides); assay: as above; settings: 10 days
Summary of the method: as §1

[10] = test system: ragweed (common ragweed, Ambrosia artemisiifolia); assay: as above; settings: 10 days
Summary of the method: as §1

[11] = test system: barnyardgrass (Echinochloa crus-galli); assay: as above; settings: 10 days
Summary of the method: as §1

[12] = test system: oat, wild (wild oat, Avena fatua); assay: Test A postemergence application, visual injury rating 0-100
Summary of the method: as §1

kochia (Bassia scoparia) [13] = assay: as above
Summary of the method: as §1

[14] = test system: galium (catchweed bedstraw, Galium aparine); assay: as above
Summary of the method: as §1

soybean (Glycine max) [15] = assay: as above
Summary of the method: as §1

corn (Zea mays) [16] = assay: as above
Summary of the method: as §1

[17] = test system: green foxtail (Setaria viridis); assay: as above
Summary of the method: as §1

[18] = test system: palmer (palmer amaranth, palmer pigweed, Amaranthus palmeri); assay: as above
Summary of the method: as §1

[19] = test system: ryegrass, Italian (italian ryegrass, Lolium multiflorum); assay: as above
Summary of the method: as §1

[20] = test system: wheat (Triticum aestivum); assay: as above
Summary of the method: as §1

[21] = test system: blackgrass (Alopecurus myosuroides); assay: as above
Summary of the method: as §1

[22] = test system: ragweed (common ragweed, Ambrosia artemisiifolia); assay: as above
Summary of the method: as §1

[23] = test system: barnyardgrass (Echinochloa crus-galli); assay: as above
Summary of the method: as §1

[24] = test system: ducksalad (Heteranthera limosa); assay: Test B flooded paddy test, visual plant response rating 0-100; settings: 250 g ai/ha, Flood, applied to paddy water, evaluated after 13 days
Summary of the method: (§2)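 Greenhouse, 13 d. Seedlings at 2-leaf stage, pots flooded to 3 cm, compound delivered into floodwater, water level held constant. Evaluated visually relative to controls.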

[25] = test system: barnyardgrass (Echinochloa crusgalli); assay: as above; settings: 250 g ai/ha, Flood, applied to paddy water, evaluated after 13 days
Summary of the method: as §2

[26] = test system: sedge, umbrella (small-flower umbrella sedge, Cyperus difformis); assay: as above; settings: 250 g ai/ha, Flood, applied to paddy water, evaluated after 13 days
Summary of the method: as §2

rice (Oryza sativa) = assay: as above; settings: 250 g ai/ha, Flood, applied to paddy water, evaluated after 13 days
Summary of the method: as §2

[27] = 62 g ai/ha, 0 = no effect, 100 = complete control
[28] = 62 g ai/ha, postemergence, 10 days, 0 = no effect, 100 = complete control
[29] = Postemergence, 16 g ai/ha, greenhouse 10 days, 0 no effect, 100 complete control

`C=CC1(C(=O)NC2COC(C(=O)OC)C2)CN(c2cc(F)cc(F)c2)C(=O)O1` (centres unmarked) [Compound 170] was tested, and the “Oat, Wild plant response rating” value ([1]; 16 g ai/ha, 0 to 100 scale) was 0, the “Oat, Wild plant response rating (0-100)” value [1, 27] was 0 and the “Kochia plant response rating” value (kochia (Bassia scoparia) [2]; 16 g ai/ha, 0 to 100 scale) was 0. For the same compound, the “Kochia plant response rating (0-100)” value (kochia (Bassia scoparia) [2]; [27]) was 0, the “Soybean plant response rating” value (soybean (Glycine max) [3]; 16 g ai/ha, 0 to 100 scale) was 0 and the “Soybean plant response rating (0-100)” value (soybean (Glycine max) [3]; [27]) was 0. For the same compound, the “Corn plant response rating” value (corn (Zea mays) [4]; 16 g ai/ha, 0 to 100 scale) was 0, the “Corn plant response rating (0-100)” value (corn (Zea mays) [4]; [27]) was 0 and the “Foxtail, Green plant response rating” value ([5]; 16 g ai/ha, 0 to 100 scale) was 0. For the same compound, the “Foxtail, Green plant response rating (0-100)” value [5, 27] was 0, the “Pigweed, Palmer plant response rating” value ([6]; 16 g ai/ha, 0 to 100 scale) was 0 and the “Pigweed, Palmer plant response rating (0-100)” value [6, 27] was 0. For the same compound, the “Ryegrass, Italian plant response rating” value ([7]; 16 g ai/ha, 0 to 100 scale) was 10, the “Ryegrass, Italian plant response rating (0-100)” value [7, 27] was 20 and the “Wheat plant response rating” value ([8]; 16 g ai/ha, 0 to 100 scale) was 0. The “Wheat plant response rating (0-100)” value [8, 27] was 0, the “Blackgrass plant response rating” value ([9]; 16 g ai/ha, 0 to 100 scale) was 0 and the “Blackgrass plant response rating (0-100)” value [9, 27] was 0. The “Ragweed plant response rating” value ([10]; 16 g ai/ha, 0 to 100 scale) was 0, the “Ragweed plant response rating (0-100)” value [10, 27] was 0 and the “Barnyardgrass plant response rating” value ([11]; 16 g ai/ha, 0 to 100 scale) was 0. The “Barnyardgrass plant response rating (0-100)” value [11, 27] was 0, the “Oat, Wild plant response rating (0-100)” value [12, 28] was 0 and the “Oat, Wild plant response rating (0 to 100 scale)” value [12, 29] was 0. For the same compound, the “Kochia plant response rating (0-100)” value (kochia (Bassia scoparia) [13]; [28]) was 0, the “Kochia plant response rating (0 to 100 scale)” value (kochia (Bassia scoparia) [13]; [29]) was 0 and the “Galium plant response rating (0-100)” value [14, 28] was 40. The “Galium plant response rating (0 to 100 scale)” value [14, 29] was 0, the “Soybean plant response rating (0-100)” value (soybean (Glycine max) [15]; [28]) was 30 and the “Soybean plant response rating (0 to 100 scale)” value (soybean (Glycine max) [15]; [29]) was 0. The “Corn plant response rating (0-100)” value (corn (Zea mays) [16]; [28]) was 0, the “Corn plant response rating (0 to 100 scale)” value (corn (Zea mays) [16]; [29]) was 0 and the “Foxtail, Green plant response rating (0-100)” value [17, 28] was 0. The “Foxtail, Green plant response rating (0 to 100 scale)” value [17, 29] was 0, the “Pigweed, Palmer plant response rating (0-100)” value [18, 28] was 0 and the “Pigweed, Palmer plant response rating (0 to 100 scale)” value [18, 29] was 0. The “Ryegrass, Italian plant response rating (0-100)” value [19, 28] was 0, the “Ryegrass, Italian plant response rating (0 to 100 scale)” value [19, 29] was 0 and the “Wheat plant response rating (0-100)” value [20, 28] was 0. For the same compound, the “Wheat plant response rating (0 to 100 scale)” value [20, 29] was 0, the “Blackgrass plant response rating (0-100)” value [21, 28] was 0 and the “Blackgrass plant response rating (0 to 100 scale)” value [21, 29] was 0. The “Ragweed plant response rating (0-100)” value [22, 28] was 0, the “Ragweed plant response rating (0 to 100 scale)” value [22, 29] was 0 and the “Barnyardgrass plant response rating (0-100)” value [23, 28] was 30. The “Barnyardgrass plant response rating (0 to 100 scale)” value [23, 29] was 0, the “Plant response rating, Ducksalad (0 to 100 scale, 0 is no effect and 100 is complete control)” value [24] was 0 and the “Plant response rating, Barnyardgrass (0 to 100 scale, 0 is no effect and 100 is complete control)” value [25] was 0. The “Plant response rating, Sedge, Umbrella (0 to 100 scale, 0 is no effect and 100 is complete control)” value [26] was 0 and the “Plant response rating, Rice (0 to 100 scale, 0 is no effect and 100 is complete control)” value (rice (Oryza sativa)) was 0.

— patent US20260285850A1, “SUBSTITUTED OXAZOLIDINONES AND IMIDAZOLINONES AS HERBICIDES” (FMC CORPORATION, priority 2023, published 2026)
